Measured values: PubChem BioAssay AID179 (DTP/NCI, 2004)
Several values for one entry are separate records, joined by “and”; a condition that tells them apart may be missing. Equal values may be shown once. Activity calls are given as the source filed them.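 The calls were made as follows: active = compounds giving half or more protection of infected cells from virus-caused growth loss, again on retest; inactive = the rest.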 Where a SMILES comes first, the peptide text is derived from it. The star is where a group is joined. Boc = CC(C)(C)OC(=O)*

Tested on: CEM cells HIV-1 protection, formazan growth assay
Assay: NCI AIDS Antiviral Assay
Details: for IC50: measured here: growth of uninfected CEM cells
In short: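 Human CEM cells, uninfected and HIV-1-infected, exposed to five drug concentrations; growth measured by soluble formazan assay and scored as percent protection from infection, with protecting compounds retested.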

Row | Compound | EC50 | IC50 [µM] | outcome
1 | CCOC(=O)OC(=S)N(C1CCCCC1)C1CCCCC1 | > 200 µM | 97.7 | 
2 | CN(NC1=NCCO1)c1ccc2ccccc2c1 | > 200 µM | 28.8 | 
3 | COC(=O)C(Cc1ccccc1)NC(=O)C(CS)NC(=O)OC(C)(C)C (stereo not drawn) (Boc-Cys-Phe-OMe; configuration not given here) | > 200 µM | 9.55 | 
4 | Cc1cc(Cl)ccc1NC(=O)CCCC(=O)C1C/C(=N/O)CC/C1=N\O (configuration not stated) | > 95.5 µM | > 95.5 | 
5 | COc1ccc(NC(=O)/C(C#N)=C/c2ccc(O)c(O)c2)cc1O | > 200 µM | 16.2 | 
6 | CCC1(CCO)C(=O)NC(=Nc2ccccc2)NC1=O (configuration not stated) | > 479 µM | > 479 | 
7 | Cc1cn(C2CC(O)C(CO[Si](C)(C)C(C)(C)C)OC2OC(C)C)c(=O)[nH]c1=O (configuration not stated) | > 200 µM | 37.2 | 
8 | C/C(Sc1ccccc1)=C1/CCCN(Cc2ccccc2)C1 | > 200 µM | 74.1 | 
9 | CC(=O)Oc1ccc(/C=C/S(=O)(=O)CS(=O)(=O)/C=C/c2ccc(OC(C)=O)c(OC(C)=O)c2)cc1OC(C)=O | > 20 µM | 11 | 
10 | O/N=C1\CC(c2ccccc2)Oc2ccccc21 (configuration not stated) | > 200 µM | 126 | 
11 | CC1S(=O)(=O)OCCOS1(=O)=O | > 1150 µM | 123 | 
12 | Oc1ccc(Cl)cc1-c1cc(-c2ccccc2)nc(=S)[nH]1 | > 200 µM | 170 | 
13 | O=C1CC(CC(O)C2CCCC2O)CC(=O)N1 (configuration not stated) | > 200 µM | > 200 | 
14 | [N-]=[N+]=Nc1ccc2c(c1)Sc1ccccc1N2CCCCN1CCN(C(=O)CCNC(=O)Cc2ccc(C(=O)c3ccccc3)cc2)CC1 | > 200 µM | 3.89 | 
15 | CC1(c2ccccc2)Sc2ccccc2-n2cccc2C1=O (configuration not stated) | 1.05 µM | 3.8 | 
16 | CCC(c1ccc(N(C)C)cc1)C1NC(=S)NC1=O (configuration not stated) | > 200 µM | 25.7 | 
17 | CCCCCCCCCCCCC/C=C\[C@@H](OC(=O)c1ccccc1)C(CO)N=[N+]=[N-] (some centres not stated) |  |  | inactive
18 | COc1ccc(O)c2c(=O)ccccc12 |  |  | inactive
19 | N#Cc1nc(COCCOCc2ccccc2)oc1N | > 110 µM | 107 | 
20 | N#CC(C(=O)Nc1ccccc1)C1=C(Cl)C(=O)c2ccccc2C1=O (configuration not stated) | > 251 µM | 39.8 | 
21 | CCOC(=O)C1(CC)OC12CCCCC2 (configuration not stated) | > 200 µM | > 200 | 
22 | CCCc1cc(=O)oc2c3c(c4c(c12)OC(C)(C)C=C4)OC(C)[C@H](C)[C@@H]3O (some centres not stated) | 5.01 µM | 13.8 | 

Row | Compound | EC50 | IC50 [µM] | outcome
23 | COC(=O)c1cc(=O)n(C)c2ccc(OC)cc12 | > 200 µM | 166 | 
24 | N#CC12CCCC(=O)N1c1ccccc1S2 (configuration not stated) | > 195 µM | 105 | 
25 | NS(=O)(=O)c1cc[n+]([O-])c2ccccc12 | > 200 µM | 55 | 
26 | CC1(C)C2CCC1(C)C(NC(=O)COCCOCC(N)=O)C2 (configuration not stated) | > 83.2 µM | 41.7 | 
27 | COC(=O)C(Cc1nc2ccc(Cl)cc2[nH]c1=O)/C(=N/NC(N)=O)C(=O)Nc1ccc(Cl)cc1 (configuration not stated) | > 70.8 µM | > 70.8 | 
28 | N#C[C@H](c1nc2ccccc2[nH]1)c1nc2ccccc2nc1Cl | > 200 µM | 11 | 
29 | COc1ccc2cc(C(=O)NCCCNC(=O)c3ccc4cc(OC)ccc4c3)ccc2c1 |  |  | inactive
30 | O=c1c(SCc2ccccc2F)c(SCc2ccccc2F)cnn1-c1ccccc1 | > 11.5 µM | 4.9 | 
31 | CCOC(=O)c1nc2ccc(C(F)(F)F)cc2nc1NCc1cc(OC)c(OC)c(OC)c1 | > 126 µM | > 126 | 
32 | CC(C)=Cc1cc(C(=O)Nc2ccc(Cl)c(Cl)c2)nc(N)n1 | > 741 µM | 490 | 
33 | C/C(CC(=O)Nc1ccc(C)c(C)c1)=N\NC(N)=O | > 692 µM | > 692 | 
34 | O=C1c2ccsc2C(=O)c2sccc21 | > 2 µM | 0.309 | 
35 | Cc1cn([C@H]2C[C@@H]3[C@@H](COC(CCN=[N+]=[N-])N3O)O2)c(=O)[nH]c1=O (some centres not stated) | 72.4 µM | > 200 | 
36 | CC(C)(C)c1ccc(O)c(Cc2cc(C(C)(C)C)cc(Cc3cc(C(C)(C)C)ccc3O)c2O)c1 | > 39.8 µM | 12.9 | 
37 | N#CCCN(CCC#N)c1ccc(/C=C2/N=C(COc3ccccc3)N(c3ccc(Cl)cc3)C2=O)cc1 | > 37.2 µM | > 37.2 | 
38 | CCCc1cc(=O)oc2c3c(c4c(c12)OC(C)(C)C=C4)O[C@H](C)[C@H](C)[C@@H]3O | > 87.1 µM | 6.46 | 
39 | COC(=O)C1CCC[C@H]2C(CO)=C(C)C(=O)[C@@H]12 (some centres not stated) | 182 µM | > 200 | 
40 | Nc1ccc(N=Nc2ccc(-c3ccc(N=Nc4ccc(N)c5cc(S(=O)(=O)O)ccc45)cc3)cc2)c2ccc(S(=O)(=O)O)cc12 |  |  | active
41 | O=C(O)CCSSCCCS(=O)O | 105 µM | 191 | 
42 | Cn1cnc([N+](=O)[O-])c1SC1=NCCS1 | > 1020 µM | 7.08 | 
43 | CC1(C)CC(=O)C2=C(C1)OC(N)=C(c1nc(-c3ccccc3)cs1)C2c1ccc(Br)cc1 (configuration not stated) | > 200 µM | 22.9 | 
44 | CC(=O)OCC1=C(CCC#N)N2C(=O)C(NC(=O)Cc3cccs3)C2S(=O)C1 (configuration not stated) | > 200 µM | 95.5 | 

Row | Compound | EC50 | IC50 [µM] | outcome
45 | Cc1ccc(S(=O)(=O)/C(C#N)=C/NC(=S)Nc2ccc(C)cc2C)cc1 |  |  | inactive
46 | CCN(CC)CCNC(=O)c1nn(-c2ccc(C)cc2)c2c1N(C)S(=O)(=O)c1ccccc1-2 | > 77.6 µM | 56.2 | 
47 | COc1cc2c(cc1OC)[C@@](C)(C(O)C(O)C(C)(C)O)NCC2 (some centres not stated) | > 200 µM | > 200 | 
48 | Cc1cn(C2CC(COCc3ccccc3)N(CCO)O2)c(=O)[nH]c1=O (configuration not stated) | > 200 µM | > 200 | 
49 | O=C(OCCO)C1CC2CC1C1(C2)OCCO1 (configuration not stated) |  |  | inactive
50 | O=C1c2c(O)ccc(O)c2C(=O)c2c(NCCCCO)ccc(NCCCCO)c21 | 15.8 µM | 17.4 | 
51 | N=C1c2ccccc2C(=O)c2c(NCCNCCO)ccc(O)c21 | > 7.76 µM | 0.759 | 
52 | CC(=O)OC12/C(=N/O)CCCCCC1c1ccccc12 (configuration not stated) | > 200 µM | > 200 | 
53 | CN(C)C(=O)c1ccc(N=Nc2c(O)c3ccccc3[nH]c2=O)cc1 | > 200 µM | 36.3 | 
54 | Cn1nc2ccc(Nc3cc(=O)[nH]c4ccc5nn(C)nc5c34)cc2n1 | > 200 µM | 95.5 | 
55 | O=[N+]([O-])c1ccc(NCCS(=O)(=O)O)c([N+](=O)[O-])c1 | > 794 µM | > 794 | 
56 | Clc1cc(N/N=C(\c2ccccc2)c2ccccn2)ncn1 | > 0.2 µM | 0.0631 | 
57 | CCOC(=O)C(Cc1cn(C(C)=O)c2ccccc12)P(=O)(OCC)OCC (configuration not stated) | > 200 µM | > 200 | 
58 | O=C(CCN(CCO)CCO)Nc1ccc2c(c1)C(=O)c1ccc(NC(=O)CCN(CCO)CCO)cc1C2=O | > 200 µM | 1.66 | 
59 | COc1ccc(-n2c(=O)n(-c3ccccc3)c(=O)n2-c2ccc(OC)cc2)cc1 | > 200 µM | > 200 | 
60 | O=C(/C(=C/c1ccccc1)c1ccccc1)N1c2ccccc2CC1c1c[nH]c2ccccc12 (configuration not stated) | 0.38 µM | 8.51 | 
61 | Cc1cn(C2CC(/[N+]([O-])=N/Nc3ccc([N+](=O)[O-])cc3)C(CO[Si](C)(C)C(C)(C)C)O2)c(=O)[nH]c1=O (configuration not stated) | > 200 µM | 7.41 | 
62 | COc1cc2ccc1OCc1cccc(n1)COc1ccc(cc1OC)C=Nc1ccc(cc1)N=C2 | > 200 µM | > 200 | 
63 | NC(CCSCc1ccccc1)P(=O)(O)O (configuration not stated) | > 200 µM | > 200 | 
64 | NCCCN1CCN(CC(=O)O)CCN(CCCN)CCN(CC(=O)O)CC1 | > 200 µM | 4.37 | 
65 | COc1ccc(-c2nc(N)n(C)c2SSc2c(-c3ccc(OC)cc3)nc(N)n2C)cc1 | > 45.7 µM | 3.98 | 
66 | COc1c2c(cc3c1OCO3)C13C=CC(OC)CC1N(CC3)C2 (configuration not stated) | > 200 µM | > 200 | 

Row | Compound | EC50 | IC50 [µM] | outcome
67 | CCOC(=O)n1c2ccccc2c2c(O)c(OC)c3c(c21)C(=O)NC3=O | > 200 µM | 30.2 | 
68 | C#[N+]CCOP(=O)(OCC1OC(n2cc(C)c(=O)[nH]c2=O)CC1N=[N+]=[N-])O[C@H]1CC[C@@]2(C)C(=CC[C@H]3[C@@H]4CC[C@H](C(C)/C=C/C(CC)C(C)C)[C@@]4(C)CC[C@@H]32)C1 (some centres not stated) | 1.62 µM and 5.89 µM | > 200 | 
69 | CC(=O)NC1=C(C)C(=O)c2c(nc3n2CCC3OC(=O)c2ccccc2)C1=N (configuration not stated) | > 200 µM | 0.912 | 
70 | COC(=O)C1CCc2c(OC)ccc(OC)c2C1=O (configuration not stated) |  |  | inactive
71 | CC(C)(C)OC(=O)N(CCCN)CCCCN | > 200 µM |  | 
72 | Cc1c2c(c(C)c3c[n+](C)ccc13)Oc1ccccc1O2 | > 20 µM | 3.72 | 
73 | COC(=O)CCC(C)C1CCC2[C@@H]3CC[C@@H]4CC(CSC(C)=O)CC[C@]4(C)C3CC[C@]12C (some centres not stated) | > 29.5 µM | > 29.5 | 
74 | O=C(OC(C(=O)O)C(OC(=O)c1ccccc1)C(=O)O)c1ccccc1 (configuration not stated) (tested in a mixture with another compound) | > 380 µM | 0.912 | 
75 | COC(=O)C1C(=O)N(C)C(=O)N2CCCC12 (configuration not stated) | > 200 µM | > 200 | 
76 | COc1cc2c(cc1OC)C1C=NC(C2)c2cc(OC)c(OC)cc21 (configuration not stated) |  |  | inactive
77 | COC(=O)C1=C(C(=O)OC)C23CC1C1C(C(=O)OC)=C(C(=O)OC)C12C1C=CC3C2C(=O)OC(=O)C21 (configuration not stated) | > 14.5 µM | > 14.5 | 
78 | COc1cc(Nc2cc(Cl)cc(Cl)c2)nc(N)n1 | > 200 µM | 27.5 | 
79 | COc1ccc(/C(=N\NC(=O)NN)C(c2ccc(OC)cc2)C2(O)C(=O)Nc3c(Cl)cc(Cl)cc32)cc1 (configuration not stated) | > 9.55 µM | > 9.55 | 
80 | O=C(NNC(=O)c1ccccc1O)c1ccc(O)cc1 | > 200 µM | 14.5 | 
81 | N#C/C(=C\c1ccc(Br)cc1)C(=O)c1ccccc1 | > 95.5 µM | 67.6 | 
82 | COc1ccc(CCNC(=O)/C(=C\c2ccc3c(c2)OCO3)NC(=O)c2ccccc2)cc1OC | > 200 µM | > 200 | 
83 | CCn1c(C)nc2c(N)cccc2c1=O | > 1230 µM | > 1230 | 
84 | O=C(C(=O)C(=O)C(=O)C1C(=O)c2ccccc2C1=O)C(=O)C(=O)C1C(=O)c2ccccc2C1=O |  |  | inactive
85 | COC(=O)/C=C/c1cnc2c(c1)oc(=O)n2CCc1ccccn1 | > 200 µM | 24 | 
86 | CNC(=O)N(CCC#N)CCCN(C(=O)NC)c1ccccc1 | > 200 µM | > 200 | 
